Source: patent US9796711B2, “Substituted pyrazolo[3,4-b]pyridin-6-carboxylic acids and method of use” (AbbVie S.àr.l., priority 2015, dated 2017)

Key:
ΔF508-CFTR [1] = target: T1, ΔF508-CFTR (Homo sapiens, UniProt P13569, DEL508-508); assay: CFTR cell surface levels using HRP-tagged ΔF508-CFTR expressing CFBE cells, in the presence of a co-corrector; type: cell-based; details: HRP-tagged ΔF508-CFTR expressing CFBE cells, in the presence of 3 μM co-corrector; for EC50: read-out: EC50
T1 construct: host or cells: CFBE41o-, doxycycline-inducible
T1 sequence (P13569 with tags, fused parts or gaps DEL508-508): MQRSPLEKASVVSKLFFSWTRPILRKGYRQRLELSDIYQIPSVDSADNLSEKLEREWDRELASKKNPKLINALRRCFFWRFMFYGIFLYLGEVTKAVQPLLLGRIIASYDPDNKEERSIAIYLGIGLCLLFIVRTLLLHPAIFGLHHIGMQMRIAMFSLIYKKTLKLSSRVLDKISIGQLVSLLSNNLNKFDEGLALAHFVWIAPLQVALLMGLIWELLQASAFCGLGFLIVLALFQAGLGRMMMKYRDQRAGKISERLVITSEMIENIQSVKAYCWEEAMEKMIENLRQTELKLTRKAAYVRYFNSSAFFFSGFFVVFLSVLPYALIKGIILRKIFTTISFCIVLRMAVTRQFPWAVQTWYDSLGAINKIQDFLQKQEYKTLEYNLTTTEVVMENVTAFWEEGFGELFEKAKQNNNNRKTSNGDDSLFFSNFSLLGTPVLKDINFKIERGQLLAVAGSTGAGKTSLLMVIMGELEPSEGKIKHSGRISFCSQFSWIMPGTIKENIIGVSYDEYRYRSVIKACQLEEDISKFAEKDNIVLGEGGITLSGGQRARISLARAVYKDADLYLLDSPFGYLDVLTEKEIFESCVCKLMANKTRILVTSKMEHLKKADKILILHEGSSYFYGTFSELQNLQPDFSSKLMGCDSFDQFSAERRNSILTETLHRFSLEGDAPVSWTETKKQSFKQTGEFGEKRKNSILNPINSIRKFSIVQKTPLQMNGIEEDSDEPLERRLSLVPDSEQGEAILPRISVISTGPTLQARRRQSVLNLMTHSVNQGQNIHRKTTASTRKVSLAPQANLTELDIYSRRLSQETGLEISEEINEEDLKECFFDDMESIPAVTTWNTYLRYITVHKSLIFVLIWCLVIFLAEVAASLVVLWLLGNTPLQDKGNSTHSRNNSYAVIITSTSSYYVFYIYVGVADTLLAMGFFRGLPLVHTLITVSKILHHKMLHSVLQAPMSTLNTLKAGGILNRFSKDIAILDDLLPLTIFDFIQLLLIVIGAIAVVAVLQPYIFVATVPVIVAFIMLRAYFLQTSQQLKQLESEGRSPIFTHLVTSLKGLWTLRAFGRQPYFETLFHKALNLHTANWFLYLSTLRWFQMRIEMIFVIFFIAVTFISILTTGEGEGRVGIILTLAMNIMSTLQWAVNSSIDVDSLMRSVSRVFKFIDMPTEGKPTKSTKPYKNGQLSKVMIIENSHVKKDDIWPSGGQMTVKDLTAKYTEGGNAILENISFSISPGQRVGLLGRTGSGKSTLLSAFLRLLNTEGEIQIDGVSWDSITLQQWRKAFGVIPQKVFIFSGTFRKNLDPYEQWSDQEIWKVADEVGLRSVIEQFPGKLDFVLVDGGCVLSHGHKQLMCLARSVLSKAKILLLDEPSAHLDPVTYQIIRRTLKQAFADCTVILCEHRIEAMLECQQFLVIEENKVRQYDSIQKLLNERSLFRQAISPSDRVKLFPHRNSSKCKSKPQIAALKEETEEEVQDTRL
Summary of the method: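 Cells were seeded with 0.5 μg/mL doxycycline and held 68 h at 37 °C. Test compounds plus 3 μM co-corrector (final 0.1% DMSO) were then added for 20 h at 33 °C. Washed cells received HRP substrate, and luminescence was normalized between DMSO and 3 μM co-corrector controls.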

ΔF508-CFTR [2] = target: T1, ΔF508-CFTR; assay: CFTR cell surface levels using HRP-tagged ΔF508-CFTR expressing CFBE cells, intrinsic corrector capacity; type: cell-based; details: HRP-tagged ΔF508-CFTR CFBE41o- cells, compounds alone (intrinsic corrector capacity), 20 hours at 33° C.; for % Activation: positive control 3 μM corrector; for EC50: read-out: EC50
Summary of the method: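 Here the cells express ΔF508-CFTR with horseradish peroxidase inserted in extracellular loop 4, so only rescued channel at the surface gives luminescent signal. Compounds act on their own, 20 h at the reduced temperature of 33 °C; values are percent activity relative to DMSO and a 3 μM corrector.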

SMILES	% Activation (ΔF508-CFTR [1]) [%]	EC50 (ΔF508-CFTR [1]) [µM]	% Activation (ΔF508-CFTR [2]) [%]	EC50 (ΔF508-CFTR [2]) [µM]
Cc1nn(-c2ccccc2)c2nc(C(=O)O)cc(-c3ccc(N4CCC(N(C)C)C4)cc3)c12 (stereo not shown) [compound 217, 4-{4-[3-(dimethylamino)pyrrolidin-1-yl]phenyl}-3-methyl-1-phenyl-1H-pyrazolo[3,4-b]pyridine-6-carboxylic acid]	342.3	1.47	129.7	1.52
Cc1cccc(-n2nc(C(C)C)c3c(N4CCC(C#N)C4)cc(C(=O)O)nc32)c1 (stereo not shown) [compound 218, 4-(3-cyanopyrrolidin-1-yl)-1-(3-methylphenyl)-3-(propan-2-yl)-1H-pyrazolo[3,4-b]pyridine-6-carboxylic acid]	380.9	0.933	169.4	2.31
N#CC1CCN(c2ccc(-c3cc(C(=O)O)nc4c3c(C3CCC3)nn4C3CCCCC3)cc2)CC1 [compound 219, 4-[4-(4-cyanopiperidin-1-yl)phenyl]-3-cyclobutyl-1-cyclohexyl-1H-pyrazolo[3,4-b]pyridine-6-carboxylic acid]	474.5	0.365	248.7	0.518
CC(C)c1nn(-c2cccc(N3CCCC3)c2)c2nc(C(=O)O)cc(-c3ccc(N4CCC(C#N)CC4)cc3)c12 [compound 221, 4-[4-(4-cyanopiperidin-1-yl)phenyl]-3-(propan-2-yl)-1-[3-(pyrrolidin-1-yl)phenyl]-1H-pyrazolo[3,4-b]pyridine-6-carboxylic acid]	645.97	0.283	429	0.315
CC(C)c1nn(C2CCCCC2)c2nc(C(=O)O)cc(-c3ccc(N4CCCC(F)C4)nc3)c12 (stereo not shown) [compound 223, 1-cyclohexyl-4-[6-(3-fluoropiperidin-1-yl)pyridin-3-yl]-3-(propan-2-yl)-1H-pyrazolo[3,4-b]pyridine-6-carboxylic acid]	484.45	0.687	246.95	0.714
COC1CCN(c2ccc(-c3cc(C(=O)O)nc4c3c(C(C)C)nn4C3CCCCC3)cn2)C1 (stereo not shown) [compound 224, 1-cyclohexyl-4-[6-(3-methoxypyrrolidin-1-yl)pyridin-3-yl]-3-(propan-2-yl)-1H-pyrazolo[3,4-b]pyridine-6-carboxylic acid]	396.65	0.896	189.6	1.18
CC(C)c1nn(-c2cccc(N3CC(O)C3)c2)c2nc(C(=O)O)cc(-c3ccc(N4CCOCC4)cc3)c12 [compound 225, 1-[3-(3-hydroxyazetidin-1-yl)phenyl]-4-[4-(morpholin-4-yl)phenyl]-3-(propan-2-yl)-1H-pyrazolo[3,4-b]pyridine-6-carboxylic acid]	395.7	0.901	251.5	1.98
Cc1cccc(-n2nc(C(C)C)c3c(N4CC5CN(CC#N)CC5C4)cc(C(=O)O)nc32)c1 (stereo not shown) [compound 226, 4-[5-(cyanomethyl)hexahydropyrrolo[3,4-c]pyrrol-2(1H)-yl]-1-(3-methylphenyl)-3-(propan-2-yl)-1H-pyrazolo[3,4-b]pyridine-6-carboxylic acid]	352.2	1.35	189.05	3.34
CC(C)c1nn(-c2cc(Cl)ccn2)c2nc(C(=O)O)cc(-c3ccc(N4CCOCC4)cc3)c12 [compound 229, 1-(4-chloropyridin-2-yl)-4-[4-(morpholin-4-yl)phenyl]-3-(propan-2-yl)-1H-pyrazolo[3,4-b]pyridine-6-carboxylic acid]	298	1.56	130.65	2.15
COCCN(C)c1ncc(-c2cc(C(=O)O)nc3c2c(C(C)C)nn3-c2cccc(N3CCOCC3)c2)cn1 [compound 230, 4-{2-[(2-methoxyethyl)(methyl)amino]pyrimidin-5-yl}-1-[3-(morpholin-4-yl)phenyl]-3-(propan-2-yl)-1H-pyrazolo[3,4-b]pyridine-6-carboxylic acid]	507.3	0.514	368.85	1.49
CC(C)c1nn(-c2cccc(N3CCOCC3)c2)c2nc(C(=O)O)cc(-c3cnc(N(C)C4CCOCC4)nc3)c12 [compound 231, 4-{2-[methyl(oxan-4-yl)amino]pyrimidin-5-yl}-1-[3-(morpholin-4-yl)phenyl]-3-(propan-2-yl)-1H-pyrazolo[3,4-b]pyridine-6-carboxylic acid]	625.45	0.57	419	0.733
COc1cccc(-n2nc(C)c3c(-c4ccc(N5CCN(CC#N)CC5)cc4)cc(C(=O)O)nc32)c1 [compound 232, 4-{4-[4-(cyanomethyl)piperazin-1-yl]phenyl}-1-(3-methoxyphenyl)-3-methyl-1H-pyrazolo[3,4-b]pyridine-6-carboxylic acid]	380.95	1.28	215.6	1.68
CC(=O)N1CC2CN(c3cc(C(=O)O)nc4c3c(C(C)C)nn4-c3cccc(C)c3)CC2C1 (stereo not shown) [compound 233, 4-(5-acetylhexahydropyrrolo[3,4-c]pyrrol-2(11/)-yl)-1-(3-methylphenyl)-3-(propan-2-yl)-1H-pyrazolo[3,4-b]pyridine-6-carboxylic acid]	249.55	3.34	72.33	3.03
Cc1cccc(-n2nc(C(C)C)c3c(N4CCC5C(CCN5C(=O)OC(C)(C)C)C4)cc(C(=O)O)nc32)c1 (stereo not shown) [compound 234, 4-[1-(tert-butoxycarbonyl)octahydro-5H-pyrrolo[3,2-c]pyridin-5-yl]-1-(3-methylphenyl)-3-(propan-2-yl)-1H-pyrazolo[3,4-b]pyridine-6-carboxylic acid]	510.27	0.368	292.97	0.464
CC(C)c1nn(C2CCCCC2)c2nc(C(=O)O)cc(-c3cnc(N4CCC(C#N)CC4)nc3)c12 [compound 235, 4-[2-(4-cyanopiperidin-1-yl)pyrimidin-5-yl]-1-cyclohexyl-3-(propan-2-yl)-1H-pyrazolo[3,4-b]pyridine-6-carboxylic acid]	403.1	0.743	206.8	0.832
CC(C)c1nn(C2CCCCC2)c2nc(C(=O)O)cc(-c3cnc(N(C)C4CCOCC4)nc3)c12 [compound 236, 1-cyclohexyl-4-{2-[methyl(oxan-4-yl)amino]pyrimidin-5-yl}-3-(propan-2-yl)-1H-pyrazolo[3,4-b]pyridine-6-carboxylic acid]	423.62	0.638	213.68	0.656
COCCN(C)c1ncc(-c2cc(C(=O)O)nc3c2c(C(C)C)nn3C2CCCCC2)cn1 [compound 237, 1-cyclohexyl-4-{2-[(2-methoxyethyl)(methyl)amino]pyrimidin-5-yl}-3-(propan-2-yl)-1H-pyrazolo[3,4-b]pyridine-6-carboxylic acid]	372.97	0.324	227	0.51
COCCN(C)c1ccc(-c2cc(C(=O)O)nc3c2c(C(C)C)nn3-c2cccc(N3CCCC3)c2)cc1 [compound 238, 4-{4-[(2-methoxyethyl)(methyl)amino]phenyl}-3-(propan-2-yl)-1-[3-(pyrrolidin-1-yl)phenyl]-1H-pyrazolo[3,4-b]pyridine-6-carboxylic acid]	613.4	0.54	393.7	0.827
COCCN(C)c1ccc(-c2cc(C(=O)O)nc3c2c(C(C)C)nn3-c2cccc(N3CCC3)c2)cn1 [compound 239, 1-[3-(azetidin-1-yl)phenyl]-4-{6-[(2-methoxyethyl)(methyl)amino]pyridin-3-yl}-3-(propan-2-yl)-1H-pyrazolo[3,4-b]pyridine-6-carboxylic acid]	495.85	0.713	327.55	0.875
CC(C)c1nn(-c2cccc(N3CCC3)c2)c2nc(C(=O)O)cc(-c3ccc(N(C)C4CCOCC4)cc3)c12 [compound 240, 1-[3-(azetidin-1-yl)phenyl]-4-{4-[methyl(oxan-4-yl)amino]phenyl}-3-(propan-2-yl)-1H-pyrazolo[3,4-b]pyridine-6-carboxylic acid]	609.05	0.516	380.6	0.588
CC(C)c1nn(-c2cc(N3CCOCC3)ccn2)c2nc(C(=O)O)cc(-c3ccc(N4CCOCC4)cc3)c12 [compound 241, 4-[4-(morpholin-4-yl)phenyl]-1-[4-(morpholin-4-yl)pyridin-2-yl]-3-(propan-2-yl)-1H-pyrazolo[3,4-b]pyridine-6-carboxylic acid]	259.75	2.14	60.46	3.34
CC(C)c1nn(-c2cccc(F)c2)c2nc(C(=O)O)cc(-c3ccc(N4CCOCC4)cc3)c12 [compound 242, 1-(3-fluorophenyl)-4-[4-(morpholin-4-yl)phenyl]-3-(propan-2-yl)-1H-pyrazolo[3,4-b]pyridine-6-carboxylic acid]	394.12	0.338	206.5	0.603
